According to US20100119599A1 (ARCHER PHARMACEUTICALS, INC., priority 2006, published 2010):
Like-named read-outs stand apart in the source and are kept apart here.

What was measured:
Aβ1-40 = assay: Measurement of Aβ1-40 in culture medium of 7W WT APP751 CHO cells by ELISA; type: cell-based, Chinese hamster; details: for activity at 5 µM: Cricetulus griseus, 5 μM test compound, CHO cells stably transfected with human APP751, culture medium, ELISA, control DMSO; for Aβ1-40 (% of control): CHO cells that overexpress APP751, zero = below the detection limit of the assay;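 as to all read-outs here: 5 µM test compound but RI-coded compounds at 10 µM for 24 hours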
Aβ1-42 = assay: Measurement of Aβ1-42 in culture medium of 7W WT APP751 CHO cells by ELISA; type: cell-based, Chinese hamster; details: for activity at 5 µM: Cricetulus griseus, 5 μM test compound, CHO cells stably transfected with human APP751, culture medium, ELISA, control DMSO; for Aβ1-42 (% of control): CHO cells that overexpress APP751, zero = below the detection limit of the assay;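 as to Aβ1-42 (% of control): 5 µM test compound but RI-coded compounds at 10 µM for 24 hours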
[1] = Table 1, 0 = no detectable amount
[2] = Table 1, 0 = no detectable amount, read-out: Aβ1-42 (% of control)

For CC1=C(C#N)C(c2ccc(Cl)cc2)C2=C(CC(C)(C)CC2=O)N1 (stereo not shown) [ST013410, 4-(4-chlorophenyl)-2,7,7-trimethyl-5-oxo-1,4,6,7,8-pentahydroquinoline-3-carbonitrile], which activity at 5 µM (Aβ1-40; [1]) is on record?
The activity at 5 µM was 22%.

What about the activity at 5 µM (Aβ1-42; [2]) of the same molecule?
The activity at 5 µM was 26%.

Which activity at 5 µM (Aβ1-40; [1]) does the source give for COC(=O)C1=C(C)NC2=C(C(=O)CCC2)C1c1ccc(Br)cc1 (stereo not shown) [ST028547, methyl 4-(4-bromophenyl)-2-methyl-5-oxo-1,4,6,7,8-pentahydroquinoline-3-carboxylate] here?
The activity at 5 µM was 72.1%.

And the activity at 5 µM (Aβ1-42; [2])?
Its activity at 5 µM is 45.3%.

Which results are given for CCOC(=O)C1=C(C)NC2=C(C(=O)CCC2)C1c1ccc(OCC)cc1 (stereo not shown) [ST213781, ethyl 4-(4-ethoxyphenyl)-2-methyl-5-oxo-1,4,6,7,8-pentahydroquinoline-3-carboxylate]?
activity at 5 µM (Aβ1-40; [1]): 66.8%; activity at 5 µM (Aβ1-42; [2]): 81.3%

What does the source list for N#CC1=C(N)NC(S)=C(C#N)C1c1cccc(Br)c1 (stereo not shown) [ST014065, 6-amino-4-(3-bromophenyl)-2-sulfanyl-1,4-dihydropyridine-3,5-dicarbonitrile]?
Aβ1-40 (% of control) (Aβ1-40): 18.6 % of control; Aβ1-42 (% of control) (Aβ1-42): 30.01 % of control

For COc1ccc(COC(=O)C2=C(C)NC3=C(C(=O)CCC3)C2c2ccc(Cl)cc2)cc1 (stereo not shown) [ST018648, (4-methoxyphenyl)methyl 4-(4-chlorophenyl)-2-methyl-5-oxo-1,4,6,7,8-pentahydroquinoline-3-carboxylate], which activity at 5 µM (Aβ1-40; [1]) is on record?
The activity at 5 µM was 7.49%.

What about the activity at 5 µM (Aβ1-42; [2]) of the same molecule?
The activity at 5 µM was 11%.

Which results are given for N#CC1=C(N)N(c2sc3c(c2C#N)CCCC3)C2=C(CCC2)C1(C(F)(F)F)C(F)(F)F [ST044920, 2-[2-amino-4,4-bis(trifluoromethyl)-3-cyano-1,4,5,6,7-pentahydrocyclopenta[1,2-b]pyridinyl]-4,5,6,7-tetrahydrobenzo[b]thiophene-3-carbonitrile]?
activity at 5 µM (Aβ1-40; Table 3): 76.9%; activity at 5 µM (Aβ1-42; Table 3, read-out: Aβ-42 (% of control)): 48.2%

Which “Aβ1-40 (% of control)” value (Aβ1-40) does the source give for CCOC(=O)C1=C(C)NC(C)=C(C(=O)OCC)C1c1cccc(NC(=O)C(F)(F)F)c1 [ST003836, ethyl 5-(ethoxycarbonyl)-2,6-dimethyl-4-[3-(2,2,2-trifluoroacetylamino)phenyl]-1,4-dihydropyridine-3-carboxylate] here?
The value was 45.34 % of control.

And the “Aβ1-42 (% of control)” value (Aβ1-42)?
The value was 83.98 % of control.

N#CC1=C(SCC(=O)Nc2ccc(Br)cc2)NC2=C(C(=O)CCC2)C1c1ccccc1Cl (stereo not shown) [ST050407, N-(4-bromophenyl)-2-[4-(2-chlorophenyl)-3-cyano-5-oxo(2-1,4,6,7,8-pentahydroquinolylthio)]acetamide] was tested. Which activity at 5 µM (Aβ1-40; [1]) did it give?
Its activity at 5 µM is 56.7%.

What about the activity at 5 µM (Aβ1-42; [2]) of the same molecule?
Its activity at 5 µM is 44.3%.

Which results are given for CCOc1ccc(C2C(C(=O)OCCc3ccccc3)=C(C)NC3=C2C(=O)CC(C)(C)C3)cc1 (stereo not shown) [ST015087, 2-phenylethyl 4-(4-ethoxyphenyl)-2,7,7-trimethyl-5-oxo-1,4,6,7,8-pentahydroquinoline-3-carboxylate]?
activity at 5 µM (Aβ1-40; [1]): 35.3%; activity at 5 µM (Aβ1-42; [2]): 43.7%

How did the activity at 5 µM (Aβ1-40; [1]) turn out when CC1(C)CC(=O)C2=C(C1)N(c1ccc(Br)cc1F)C(N)=C(C#N)C2c1ccc(Cl)cc1Cl (stereo not shown) [ST052048, 2-amino-4-(2,4-dichlorophenyl)-1-(4-bromo-2-fluorophenyl)-7,7-dimethyl-5-oxo-1,4,6,7,8-pentahydroquinoline-3-carbonitrile] was run?
The activity at 5 µM was 58.9%.

And the activity at 5 µM (Aβ1-42; [2])?
The activity at 5 µM was 33%.

For CCOC(=O)C1=C(C)N(C)C(C)=C(C(=O)OCC)C1c1ccccn1 [ST052366, ethyl 5-(ethoxycarbonyl)-1,2,6-trimethyl-4-(2-pyridyl)-1,4-dihydropyridine-3-carboxylate], which “Aβ1-40 (% of control)” value (Aβ1-40) is on record?
The value was 56.21 % of control.

What about the “Aβ1-42 (% of control)” value (Aβ1-42) of the same molecule?
The value was 89.76 % of control.

What does the source list for CC1=C(C(=O)Nc2ccccc2)C(c2cccs2)C(C#N)=C(SCC(=O)NCc2ccccc2)N1 (stereo not shown) [RI_22]?
Aβ1-40 (% of control) (Aβ1-40): 60.9 % of control; Aβ1-42 (% of control) (Aβ1-42): 47.6 % of control

How did the activity at 5 µM (Aβ1-40; [1]) turn out when COc1ccc(OC)c(C2C(C(=O)OC3CCCCC3)=C(C)NC3=C2C(=O)CCC3)c1 (stereo not shown) [ST013270, cyclohexyl 4-(2,5-dimethoxyphenyl)-2-methyl-5-oxo-1,4,6,7,8-pentahydroquinoline-3-carboxylate] was run?
Its activity at 5 µM is 19.7%.

What about the activity at 5 µM (Aβ1-42; [2]) of the same molecule?
The activity at 5 µM was 35%.

CC1=C(C(=O)OCCc2ccccc2)C(c2cc3c(cc2Br)OCO3)C2=C(CC(C)(C)CC2=O)N1 (stereo not shown) [ST014885, 2-phenylethyl 4-(6-bromo(2H-benzo[d]1,3-dioxolen-5-yl))-2,7,7-trimethyl-5-oxo-1,4,6,7,8-pentahydroquinoline-3-carboxylate] was tested. Which activity at 5 µM (Aβ1-40; [1]) did it give?
Its activity at 5 µM is 39.5%.

And the activity at 5 µM (Aβ1-42; [2])?
The activity at 5 µM was 87.5%.

With CCc1ccc(C2C(C(=O)OC3CCCC3)=C(C)NC3=C2C(=O)CC(C)(C)C3)cc1 (stereo not shown) [ST013227, cyclopentyl 4-(4-ethylphenyl)-2,7,7-trimethyl-5-oxo-1,4,6,7,8-pentahydroquinoline-3-carboxylate] as the molecule, how does the activity at 5 µM (Aβ1-40; [1]) read?
Its activity at 5 µM is 0%.

What about the activity at 5 µM (Aβ1-42; [2]) of the same molecule?
The activity at 5 µM was 92.7%.

With CCCCCCNC(=O)CSC1=C(C#N)C(c2cccs2)C(C(=O)Nc2ccccc2)=C(C)N1 (stereo not shown) [RI_26] as the molecule, how does the “Aβ1-40 (% of control)” value (Aβ1-40) read?
The value was 37.6 % of control.

And the “Aβ1-42 (% of control)” value (Aβ1-42)?
The value was 26.7 % of control.

What does the source list for CCc1cccc(NC(=O)CSC2=C(C#N)C(c3csc4ccccc34)C(C(=O)Nc3ccccc3)=C(C)N2)c1 (stereo not shown) [RI_92]?
Aβ1-40 (% of control) (Aβ1-40): 60.7 % of control; Aβ1-42 (% of control) (Aβ1-42): 47.3 % of control

Which results are given for CCOC(=O)C1=C(C)NC2=C(C(=O)CCC2)C1c1ccc(OCc2ccccc2Cl)c(OC)c1 (stereo not shown) [ST028591, ethyl 4-{4-[(2-chlorophenyl)methoxy]-3-methoxyphenyl}-2-methyl-5-oxo-1,4,6,7,8-pentahydroquinoline-3-carboxylate]?
activity at 5 µM (Aβ1-40; [1]): 98.3%; activity at 5 µM (Aβ1-42; [2]): 69.6%

With CC1=C(C(=O)Nc2ccc(Cl)cc2)C(c2cccs2)C(C#N)=C(SCC(=O)Nc2cccc(C)c2)N1 (stereo not shown) [RI_10] as the molecule, how does the “Aβ1-40 (% of control)” value (Aβ1-40) read?
The value was 78.8 % of control.

What about the “Aβ1-42 (% of control)” value (Aβ1-42) of the same molecule?
The value was 70.6 % of control.

What does the source list for CCC(C)OC(=O)C1=C(C)NC2=C(C(=O)CC(c3ccc(Cl)cc3)C2)C1c1ccc(Cl)c(Cl)c1 (stereo not shown) [ST017095, methylpropyl 4-(3,4-dichlorophenyl)-7-(4-chlorophenyl)-2-methyl-5-oxo-1,4,6,7,8-pentahydroquinoline-3-carboxylate]?
activity at 5 µM (Aβ1-40; [1]): 61.3%; activity at 5 µM (Aβ1-42; [2]): 37.1%

Which results are given for COCCOC(=O)C1=C(C)NC2=C(C(=O)CC(c3ccc(OC)cc3)C2)C1c1ccc2c(c1)OCO2 (stereo not shown) [ST017094, 2-methoxyethyl 4-(2H-benzo[3,4-d]1,3-dioxolen-5-yl)-7-(4-methoxyphenyl)-2-methyl-5-oxo-1,4,6,7,8-pentahydroquinoline-3-carboxylate]?
activity at 5 µM (Aβ1-40; [1]): 68.9%; activity at 5 µM (Aβ1-42; [2]): 73.8%

With COC(=O)CSC1=C(C#N)C(c2ccc(Cl)cc2)C(C(=O)OC(C)(C)C)=C(C)N1 (stereo not shown) [ST050862, methyl 2-{5-[(tert-butyl)oxycarbonyl]-4-(4-chlorophenyl)-3-cyano-6-methyl-2-1,4-dihydropyridylthio}acetate] as the molecule, how does the “Aβ1-40 (% of control)” value (Aβ1-40) read?
Its value is 65.24 % of control.

What about the “Aβ1-42 (% of control)” value (Aβ1-42) of the same molecule?
Its value is 56.21 % of control.

Which results are given for C=CCOC(=O)C1=C(C)NC(S)=C(C#N)C1c1cccnc1 (stereo not shown) [ST011596, prop-2-enyl 5-cyano-2-methyl-4-(3-pyridyl)-6-sulfanyl-1,4-dihydropyridine-3-carboxylate]?
Aβ1-40 (% of control) (Aβ1-40): 66.77 % of control; Aβ1-42 (% of control) (Aβ1-42): 86.14 % of control

CC1=C(C(=O)OC(C)C)C(c2ccccc2)C2=C(CC(c3ccccc3)CC2=O)N1 (stereo not shown) [ST017212, methylethyl 2-methyl-5-oxo-4,7-diphenyl-1,4,6,7,8-pentahydroquinoline-3-carboxylate] was tested. Which activity at 5 µM (Aβ1-40; [1]) did it give?
Its activity at 5 µM is 25.4%.

What about the activity at 5 µM (Aβ1-42; [2]) of the same molecule?
The activity at 5 µM was 57.1%.

How did the “Aβ1-40 (% of control)” value (Aβ1-40) turn out when CCc1cccc(NC(=O)CSC2=C(C#N)C(c3ccc(C)s3)C(C(=O)Nc3ccccc3)=C(C)N2)c1 (stereo not shown) [RI_78] was run?
Its value is 77.32 % of control.

And the “Aβ1-42 (% of control)” value (Aβ1-42)?
The value was 88.1 % of control.

Which activity at 5 µM (Aβ1-40; [1]) does the source give for COc1ccc(COC(=O)C2=C(C)NC3=C(C(=O)CCC3)C2c2cccc(C)c2)cc1 (stereo not shown) [ST052354, (4-methoxyphenyl)methyl 2-methyl-4-(3-methylphenyl)-5-oxo-1,4,6,7,8-pentahydroquinoline-3-carboxylate] here?
Its activity at 5 µM is 95.1%.

And the activity at 5 µM (Aβ1-42; [2])?
The activity at 5 µM was 57.2%.

How did the activity at 5 µM (Aβ1-40; [1]) turn out when CC1=C(C(=O)OCc2ccccc2)C(c2cccc(Cl)c2Cl)C2=C(CC(C)(C)CC2=O)N1 (stereo not shown) [ST013230, phenylmethyl 4-(2,3-dichlorophenyl)-2,7,7-trimethyl-5-oxo-1,4,6,7,8-pentahydroquinoline-3-carboxylate] was run?
Its activity at 5 µM is 0%.

And the activity at 5 µM (Aβ1-42; [2])?
Its activity at 5 µM is 69.5%.

Which “Aβ1-40 (% of control)” value (Aβ1-40) does the source give for CC1=C(C(=O)Nc2ccccc2)C(c2ccsc2)C(C#N)=C(SCC(=O)Nc2ccc(C(C)(C)C)cc2)N1 (stereo not shown) [RI_64] here?
Its value is 34.1 % of control.

What about the “Aβ1-42 (% of control)” value (Aβ1-42) of the same molecule?
Its value is 41.3 % of control.

Which results are given for CC1=C(C(=O)OCCOc2ccccc2)C(c2coc3ccc(C)cc3c2=O)C2=C(CCCC2=O)N1 (stereo not shown) [ST052330, 2-phenoxyethyl 2-methyl-4-(6-methyl-4-oxochromen-3-yl)-5-oxo-1,4,6,7,8-pentahydroquinoline-3-carboxylate]?
activity at 5 µM (Aβ1-40; [1]): 42.6%; activity at 5 µM (Aβ1-42; [2]): 15.5%

How did the activity at 5 µM (Aβ1-40; [1]) turn out when CC1=C(C(=O)OCCc2ccccc2)C(c2ccc(N(C)C)cc2)C2=C(CC(C)(C)CC2=O)N1 (stereo not shown) [ST052231, 2-phenylethyl 4-[4-(dimethylamino)phenyl]-2,7,7-trimethyl-5-oxo-1,4,6,7,8-pentahydroquinoline-3-carboxylate] was run?
Its activity at 5 µM is 38.8%.

And the activity at 5 µM (Aβ1-42; [2])?
The activity at 5 µM was 63.5%.

Which results are given for CCN(CC)c1ccc(C2C(C(=O)OC)=C(C)NC3=C2C(=O)CC(c2ccccc2Cl)C3)cc1 (stereo not shown) [ST015182, methyl 4-[4-(diethylamino)phenyl]-7-(2-chlorophenyl)-2-methyl-5-oxo-1,4,6,7,8-pentahydroquinoline-3-carboxylate]?
activity at 5 µM (Aβ1-40; [1]): 39.9%; activity at 5 µM (Aβ1-42; [2]): 61.4%

Which results are given for CCOC(=O)C1=C(C)N(c2nonc2NC(C)=O)C(N)=C(C#N)C1c1ccc(Cl)cc1Cl (stereo not shown) [ST026470, ethyl 1-[4-(acetylamino)(1,2,5-oxadiazol-3-yl)]-6-amino-4-(2,4-dichlorophenyl)-5-cyano-2-methyl-1,4-dihydropyridine-3-carboxylate]?
Aβ1-40 (% of control) (Aβ1-40): 81.7 % of control; Aβ1-42 (% of control) (Aβ1-42): 67.48 % of control
